For 80 compounds, RP-LC retention time results are on record in the METLIN SMRT retention time set (Domingo-Almenara et al. 2019).

The series in a line: gradient 5% acetonitrile 3 min, to 50% in 2 min, to 85% in 15 min, held 3 min, 100 µL/min. The note with it: column: Zorbax Extend-C18 2.1 x 50 mm; eluents: water / acetonitrile, 0.1% formic acid. The method, boiled down: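 Values are retention times taken from adduct peaks that software picked and an analyst inspected. The pure standards were run as mixtures of ~100 molecules on HPLC linked to a quadrupole time-of-flight mass spectrometer, in positive and negative ionization mode. A Zorbax Extend-C18 column (2.1 × 50 mm, 1.8 μm) was used at 100 μL/min with water and acetonitrile, each including 0.1% formic acid.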
The compound `CCn1cc(C(=O)Nc2cc(C)ccc2C)c2cccnc21` registered an RP-LC retention time of 854 s.

Turning to `Cc1ccc(N2C(=O)CN(S(C)(=O)=O)CC2(C)C(=O)NC2CCCCCC2)cc1F` (stereo not given), the RP-LC retention time was 905 s.

As for `Cc1oc(-c2ccc(Cl)cc2)nc1CN1CCC(C(=O)NCCCN(C)Cc2ccccc2)CC1`, the RP-LC retention time was found to be 615 s.

`CC(=O)c1sc(Nc2nc3cc4c(cc3s2)OCO4)nc1C` gave an RP-LC retention time of 778 s.

`COc1ccc(Cl)cc1NS(=O)(=O)c1ccc2c(c1)C(=O)N(C)c1ncccc1O2`: the RP-LC retention time came to 958 s.

For the compound `O=C(NC1CCCCC1)C1CCCN(c2nc3ccsc3c(=O)n2Cc2ccc(F)cc2)C1` (stereo not given), the RP-LC retention time is 972 s.

Regarding `CCc1cccc(NC(=O)Nc2ccc3nnc(C)n3c2)c1`, the RP-LC retention time was found to be 730 s.

`CCCOC(=O)c1cnc2nc(C)ccc2c1NCc1ccc2c(c1)OCO2` gave an RP-LC retention time of 734 s.

As to `CCC(C)NC(=O)C1CCN(c2nc3cccnc3s2)CC1` (stereo not given), the RP-LC retention time is 664 s.

Turning to `Cc1cc(-n2c(C)nc3ccccc3c2=O)ccc1NC(=O)Cc1cccs1`, the RP-LC retention time is 769 s.

`O=S(=O)(c1ccc(-c2noc(-c3ccccc3F)n2)cc1)N1CCOCC1` yielded an RP-LC retention time of 1030 s.

Turning to `CCc1nc(-c2cc(S(=O)(=O)NCC(=O)N3CCCC3)c(C)s2)no1`, the RP-LC retention time is 787 s.

Regarding `Cc1cccc(NC(=O)N2CCCC2c2c(C)noc2C)c1` (stereo not given), the RP-LC retention time is 771 s.

`CNC(=O)CCNc1c(-c2ccc(OC)cc2)nc2cnccn12` came in with an RP-LC retention time of 588 s.

Compound `CN1CCN(c2nc3ccccc3nc2Cl)CC1` gave an RP-LC retention time of 650 s.

Compound `COC(=O)c1ccc(-c2nc3cnccn3c2Nc2ccc(C)cc2Br)cc1` gave an RP-LC retention time of 1060 s.

Compound `CCOc1cccc(CNc2nc3ccncc3n(C(C)C)c2=O)c1` gave an RP-LC retention time of 687 s.

Compound `O=C(Nc1ccc(Br)cc1F)C1CCCN(c2ccc(=O)n(-c3cccc(F)c3)n2)C1` (stereo not given) came in with an RP-LC retention time of 1020 s.

With `O=C(O)c1ccc(-c2ccc(N3CCCCCC3)nc2)cc1`, the RP-LC retention time came out at 623 s.

`Cc1ccc(-c2ccc(-n3nc(C)c(S(=O)(=O)N4CCCCC4)c3C)nn2)cc1`: the RP-LC retention time is 1190 s.

The compound `CCCNC(=O)N(Cc1c(C)nn(-c2ccccc2)c1Oc1ccccc1OC)CC1CCCO1` (stereo not given) displayed an RP-LC retention time of 917 s.

`CCCCNC(=O)Cn1c(=O)c2cnc(-c3ccc(Cl)cc3)nc2n(CC)c1=O` had an RP-LC retention time of 1050 s.

Turning to `CCc1cc(=O)n(CC(=O)Nc2cc(C)cc(C)c2)c(N2CCOCC2)n1`, the RP-LC retention time was determined as 802 s.

Compound `O=C(NCc1ccc2c(c1)N(C(=O)c1ccc(Cl)cc1)CC2)C1CC1` returned an RP-LC retention time of 824 s.

For `CCOc1ccc(S(=O)(=O)c2ccc(C)cc2)c2c1no[n+]2[O-]`, the RP-LC retention time was 1050 s.

Take `COc1ccccc1-c1nn2c(-c3cc(C(C)C)[nH]n3)nnc2s1`: the RP-LC retention time was determined as 872 s.

As to `CC1CCN(c2ccc(-c3cccc(NC(=O)NCc4ccccc4)c3)nn2)CC1`, the RP-LC retention time came to 747 s.

On to `CCOc1ncccc1C(=O)Nc1c(C)nc2sc(C)c(C)n2c1=O`, for which the RP-LC retention time came to 723 s.

Consider `COc1ccc(N2C(=O)C3N=NN(Cc4nc(-c5ccc(C)cc5)no4)C3C2=O)cc1` (stereo not given), for which the RP-LC retention time was 992 s.

Consider `CCCOc1ccc(Nc2nc(C(=O)OCC)nc3ccccc23)cc1`, for which the RP-LC retention time was determined as 941 s.

`Cn1cc(C(=O)N2CCOCC2)c2cccnc21` came in with an RP-LC retention time of 601 s.

`CN(C)c1nccnc1OC1CCN(C(=O)c2ccnn2C)C1` (stereo not given) registered an RP-LC retention time of 634 s.

For the compound `COC(=O)c1cccc(NC(=O)N2C[C@H]3C[C@@H](C2)c2cccc(=O)n2C3)c1`, the RP-LC retention time is 636 s.

The compound `COc1ccc(-c2nc3ncccn3c2Nc2ccc(C)c(C)c2)cc1` displayed an RP-LC retention time of 784 s.

Take `O=C(Cn1c(=O)c(CCC(=O)NC2CC2)nc2ccccc21)Nc1cccc(Br)c1`: the RP-LC retention time came out at 781 s.

In the case of `Cc1nc2nc(-c3ccc(C(C)(C)C)cc3)nn2c(C)c1CC(=O)Nc1ccc(Br)cc1`, the RP-LC retention time worked out at 1220 s.

Turning to `O=C(Cc1ccc(F)cc1)N1CCc2cc(-c3ccno3)ccc21`, the RP-LC retention time amounted to 940 s.

In turn, `c1ccc(-c2csc(Nc3nc(NCc4ccco4)nc(N4CCCCC4)n3)n2)cc1` showed an RP-LC retention time of 1210 s.

In turn, `COCCn1c(C2CCN(C(=O)Cc3ccc(Cl)cc3)C2)nc2ccncc21` (stereo not given) had an RP-LC retention time of 570 s.

With `O=C(c1ccc(-c2ccsc2)nc1)N1CCCCCC1`, the RP-LC retention time is 841 s.

As for `COc1cc(C(=O)N2CCCC2c2nc(-c3ccccc3)no2)cc(OC)c1OC` (stereo not given), the RP-LC retention time is 910 s.

As for `CCCc1nc2ccc(CCC(=O)Nc3cc(OC)cc(OC)c3)cc2[nH]1`, the RP-LC retention time worked out at 657 s.

Compound `Cc1ccc(CNC(=O)C2(C)CCN(C(=O)Nc3ccccc3C(F)(F)F)CC2)cc1` yielded an RP-LC retention time of 927 s.

`CCN(C(=O)Cc1c(C(=O)O)c(C)cn1CC)c1ccccc1` had an RP-LC retention time of 907 s.

On to `COc1ccc(Cl)cc1NC(=O)N1CCc2c(c(COc3ccccc3)nn2C)C1`, for which the RP-LC retention time came to 988 s.

In the case of `O=C(CN1CCN(C(=O)Cc2cccs2)CC1)c1ccco1`, the RP-LC retention time worked out at 538 s.

As to `Cc1ccc(Cn2c(=O)c(SCC(=O)NCC3CCCO3)nc3ccccc32)cc1` (stereo not given), the RP-LC retention time was 889 s.

Compound `C=CCn1c(=O)c2ccccc2n(Cc2nc(-c3ccccc3OCC)no2)c1=O` gave an RP-LC retention time of 1000 s.

Compound `O=C1NC2C(=CC(O)C(O)C2O)c2cc3c(cc21)OCO3` (stereo not given) returned an RP-LC retention time of 568 s.

For the compound `COc1ccc(-n2nnc(-c3nc(C)c(C(=O)NCc4ccco4)s3)c2C)cc1`, the RP-LC retention time is 879 s.

Compound `COc1ccc(C(=O)N2CCC(n3c(-c4ccco4)nc4cccnc43)C2)cn1` (stereo not given) yielded an RP-LC retention time of 643 s.

The compound `COc1cc(C(C[N+](=O)[O-])c2c(-c3ccccc3)[nH]c3ccccc23)cc(OC)c1OC` (stereo not given) showed an RP-LC retention time of 952 s.

Regarding `CCN1C(=O)c2cc(S(=O)(=O)Nc3cccc(Cl)c3)ccc2Oc2cccnc21`, the RP-LC retention time is 1060 s.

For `COc1ccc(C(=O)NCc2ccc3c(c2)OCO3)nn1`, the RP-LC retention time worked out at 654 s.

`CCCn1nnc2cc(S(=O)(=O)N3CCCC(C(=O)N4CCN(c5ccccn5)CC4)C3)ccc21` (stereo not given) showed an RP-LC retention time of 652 s.

`O=C(CCc1c(-c2ccc(F)cc2)nc2ccccn12)NCc1cccc(Br)c1` displayed an RP-LC retention time of 677 s.

`COC(=O)C1=C(C)NC(C)=C(C(=O)OCCSc2ccccc2)C1C` (stereo not given) registered an RP-LC retention time of 1080 s.

Compound `COc1cc(=O)n2c(c1C(=O)Nc1ccc(Br)c(C)c1)CCCC2` came in with an RP-LC retention time of 833 s.

Consider `CCOC(=O)CCNC(=O)NCc1nnnn1-c1ccc(OCC)cc1`, for which the RP-LC retention time worked out at 675 s.

The compound `CCOc1ccc(C(=O)Nc2ccc(Nc3ccc(-n4cccn4)nn3)cc2)cc1OCC` yielded an RP-LC retention time of 782 s.

The compound `COc1ccc(OC)c(COCC(O)CN2CCc3cc(OC)c(OC)cc3C2)c1` (stereo not given) had an RP-LC retention time of 575 s.

Turning to `COC(=O)c1nnn(-c2ccc(C)c(C)c2)c1C(=O)OC`, the RP-LC retention time turned out to be 916 s.

`Cc1ccc(CNC(=O)C2(C)Cn3nc(C(=O)NCCCN4CCCCC4)cc3C(=O)N2C)cc1` (stereo not given): the RP-LC retention time was 598 s.

`CCOc1ccc(NS(=O)(=O)c2cc(C(=O)N3CCN(c4ccccc4F)CC3)n[nH]2)cc1` gave an RP-LC retention time of 922 s.

In turn, `CCOC(=O)c1sc(NC(=O)c2ccncc2)nc1-c1ccccc1` showed an RP-LC retention time of 855 s.

In the case of `O=C(NCC(c1cccnc1)N1CCOCC1)c1ccccc1` (stereo not given), the RP-LC retention time amounted to 522 s.

`O=c1n(Cc2ccccc2Cl)nc2c(S(=O)(=O)N3CCCC3)cccn12` gave an RP-LC retention time of 853 s.

As for `O=C(c1cccc(Cl)c1)N1CCN(C(=O)c2nnn3c2COC(c2ccccc2)C3)CC1` (stereo not given), the RP-LC retention time amounted to 900 s.

For the compound `COc1cc(=O)n2c(c1C(=O)NC1CCCCCC1)CCCC2`, the RP-LC retention time was 694 s.

The compound `O=C(Nc1ccc(Cl)c(Cl)c1)N1CCN(Cc2ccsc2)CC1` yielded an RP-LC retention time of 598 s.

`O=c1ccn(-c2ccc(Cl)cc2)nc1-c1nc(-c2ccc(Br)cc2)no1` registered an RP-LC retention time of 1080 s.

In turn, `CC(C)Nc1nc(=O)[nH]c2ccccc12` came in with an RP-LC retention time of 550 s.

In turn, `Cc1ccc(Nc2nc(C)cc(N3CCN(C(=O)c4ccc(Br)o4)CC3)n2)cc1` registered an RP-LC retention time of 715 s.

For the compound `COc1ccc(NC(=O)c2c(O)c3cccnc3n(-c3ccccc3)c2=O)cc1OC`, the RP-LC retention time came to 800 s.

Compound `COc1cc(OC)cc(C(=O)Nc2ccc3c(c2)Sc2ncccc2C(=O)N3C)c1` came in with an RP-LC retention time of 858 s.

`CNC(Cc1ccccc1)c1ccc(OC)cc1` (stereo not given) had an RP-LC retention time of 567 s.

For `CCOC(=O)c1ccc(NC(=O)c2sccc2S(=O)(=O)N(C)c2ccc(OCC)cc2)cc1`, the RP-LC retention time came out at 1230 s.

`COc1ccccc1-c1cc(C(=O)N2CCN(c3cc(=O)n(C)c(=O)n3C)CC2)[nH]n1`: the RP-LC retention time is 665 s.

Consider `CC(C)CCNS(=O)(=O)c1ccc(-c2cc(C(F)(F)F)on2)o1`, for which the RP-LC retention time is 1090 s.

`CC(C)n1c(=O)oc2cc(-c3noc(/C=C/c4ccccc4)n3)ccc21` showed an RP-LC retention time of 1200 s.
